Measurements taken from patent US20250270159A1, “1-(CYCLOBUTANEMETHYLIDENE)-2, 4, 5-TRIMETHOXYBENZENE COMPOUND AND PREPARATION METHOD AND USE THEREOF” (CHENGDU XINRUI TAIKANG TECHNOLOGY CO., LTD., priority 2023, published 2025).
Marks after values point to notes of the source that are not given here.

How the values were obtained:
GABA = GABA content in brain of TBI rats; format: in vivo, SD rats; conditions: 30 mg/kg ip, 7 d continuous administration, FIG. 4
Protocol: The experimental grouping and drug administration plan were as follows. • Sham operation group (Group P): saline was given with the same volume as in the CTMB group; • Model group (T group): a blank emulsion was given with the same volume as in the CTMB group; • Medium dose group (Group M): a dose of 30 mg/kg of CTMB emulsion injection was given.
The experimental grouping and drug administration plan were the same as the test 3. After 7 d of continuous administration to each group, the rats were deeply anesthetized, the heads were severed and the brains were removed, about 60-120 mg of hemispheric cortex on the blood side was taken out, 10 times volume of ice-cold centrifugation buffer used for biochemical assay was added, homogenized for 10 min under an ice bath, and then centrifuged for 30 min at 4° C. and 14000 rpm/min. The supernatants were taken to test the GLT-1 and GABA content according to the instructions of GLT-1 and GABA content assay kit, respectively. Glutamate transporter 1 (GLT-1) is an important glutamate transporter in the brain that transports extracellular glutamate to the intracellular compartment. γ-aminobutyric acid (GABA) is an important inhibitory neurotransmitter, and a dramatic increase in the concentration of extracellular glutamate in pathological conditions leads to neuronal hyperexcitability toxicity.

[1] = test system: Parkinson's disease (PD) mice, 6-OHDA method; test: 6-OHDA Parkinson's disease mice, hanging experiment; format: in vivo, C57 mice; conditions: Group D, CTMB 20 mg/kg ip, cut-off 60 s
Protocol: (§1) The mice were randomly divided into a sham operation group (group S, given a blank emulsion with a volume equal to that of the administered group), a model group (group M, given a blank emulsion with a volume equal to that of the administered group), a CTMB group (20 mg/kg, group D), and a levodopa group (levodopa: benserazide hydrochloride=4:1, 12 mg/kg, group L), each group included 10-12 mice, and all of them were administered intraperitoneally.
(§2) Preoperatively, mice were fasted for 12 h, and mice were anesthetized with 4% isoflurane induction and maintained with 1.5% isoflurane. The mice were subsequently immobilized on a brain stereotaxic apparatus. The bregma and lambda points were exposed by gently wiping the cranial surface with a cotton swab after cutting the scalp. The stereotaxic apparatus was adjusted to align the heights of the bregma and lambda points, thereby leveling the skull. The bregma point was designated as the origin, the coordinates where the injection site was located were located, and the drill was used to drill a small hole in the skull above the injection site.
(§3) 6-OHDA (12.5 μg/μL) was injected into the striatum region (AP+0.5 mm; ML+2.00 mm; DV-3.00 mm and-2.00 mm) of the mice, and 1 μL 6-OHDA was injected into each of the two points at a rate of 0.5 μL/min. The needle was left in place for 3 min after the injection was completed, and then the injection needle was lifted, and the scalp of the mice was sutured and disinfected. The sham operation group was injected with an equal volume of saline containing 0.02% ascorbic acid, and other operations were performed as above. After the procedure, the mice were placed in the cage at an appropriate temperature. After awakening from anesthesia, the mice were kept normally.
The hanging experiment: normal mice have climbing activity, which requires proper grip strength and motor coordination, so the hanging experiment may be used to examine motor dysfunction in mice. A metal rod with a diameter of 1.5 mm was placed horizontally on top of the box, and a distance from the metal rod to the bottom of the box was 30 cm. […] Measurement was performed twice, with an interval of 1 min or more between each test, and the results were averaged over the two times.
(§4) The motor function of the mice was comprehensively assessed using the rod-climbing experiment and the hanging experiment at 1, 2, 3, and 4 weeks after drug administration.

[2] = test system: mouse model of pentylenetetrazole-induced epilepsy; test: Mouse model of pentylenetetrazole-induced epilepsy (Racine score, seizure rate, latency); format: in vivo, Kunming (KM) mice; conditions: for Incubation period (s), Clonic seizure / Incubation period (s), Tonic seizure: no seizure within 30 min recorded as 1800 s; for Seizure grade: pentylenetetrazole 75 mg/kg ip, Racine score within 30 min; for seizure rate, Clonic seizure / seizure rate, Tonic seizure: within 30 min
Protocol: Validation of the protective effect of CTMB in a mouse model of pentylenetetrazole-induced epilepsy. • (1) Experimental animals: specific pathogen free (SPF) adult male Kunming (KM) mice with a weight of 30-35 g. • (2) Animal grouping: the test mice were randomly divided into […], namely, saline group, low-dose CTMB group (a dose of 50 mg/kg, CTMB-L), middle-dose CTMB group (a dose of 75 mg/kg, CTMB-M), high-dose CTMB group (a dose of 100 mg/kg, CTMB-H), 10 mice in each group, and each group was administered by intraperitoneal injection. • (3) Evaluation methods and results:
After a period of drug administration, mice in each group were injected intraperitoneally with pentylenetetrazole of the epilepsy modeling drug with a dose of 75 mg/kg, and clonic seizures and tonic seizures were used as evaluation indexes. Racine scores as well as the seizure rate and latency period of clonic seizures (Racine scores of 1-3) and tonic seizures (Racine scores of 4-5) were observed and recorded for each group of mice within 30 min. Grading scale of Racine scores are as follows. Grade 0 represents normal nonepileptic activity; grade 1 represents wet-dog-like shaking or scratching; grade 2 represents head nodding or tail wagging; grade 3 represents stretching of one forelimb or clonus of one limb; grade 4 represents multiple limb clonus or tonicity; grade 5 represents falls and generalized tonic clonic seizures. If no seizure occurs in the mouse within 30 min, the latency period was recorded as 1800 s.

[3] = test system: Parkinson's disease (PD) mice, 6-OHDA method; test: 6-OHDA Parkinson's disease mice, rod-climbing experiment; format: in vivo, C57 mice; conditions: Group D, CTMB 20 mg/kg ip
Protocol: as §1, §2, §3
The rod-climbing experiment: the rod-climbing experiment was mainly used to test the limb movement ability of mice and to assess the symptoms of motor delay. This experiment evaluated the ability of mice to grasp and maneuver on a pole to descend to their home cage. A cork ball was fixed to an iron pole with a diameter of 1 cm and a length of 65 cm. The head of the mice was put down on the top of the pole, and the mice usually naturally descended down along the pole to return to their cage. The time for the mice to descend to the bottom was recorded. Results were averaged over 3 consecutive measurements.
as §4

Structure (SMILES): COc1cc(OC)c(OC)cc1C=C1CCC1 [CTMB, 1-(cyclobutylidenemethyl)-2,4,5-trimethoxybenzene]
- GABA content in brain (GABA): increases the content of GABA
- Hanging time, Before administration ([1]; baseline 2 weeks after 6-OHDA): 45.5 ± 14.6 s
- Hanging time, 1 week of administration [1]: 51.8 ± 14.1 s
- Hanging time, 2 weeks of administration [1]: 56.8 ± 5.2 s
- Hanging time, 3 weeks of administration [1]: 58.8 ± 2.8 s
- Hanging time, 4 weeks of administration [1]: 57.6 ± 4.6 s
- Incubation period (s), Clonic seizure ([2]; CTMB-H 100 mg/kg ip): 1549.9 ± 537.1 s
- Incubation period (s), Tonic seizure ([2]; CTMB-H 100 mg/kg ip): 1800.0 ± 0.0 s
- Seizure grade ([2]; CTMB-H 100 mg/kg ip): 0.2 ± 0.4
- seizure rate, Clonic seizure ([2]; CTMB-H 100 mg/kg ip): 20%***
- seizure rate, Tonic seizure ([2]; CTMB-H 100 mg/kg ip): 0%***
- Incubation period (s), Clonic seizure ([2]; CTMB-L 50 mg/kg ip): 588.9 ± 657.6 s
- Incubation period (s), Tonic seizure ([2]; CTMB-L 50 mg/kg ip): 1000.8 ± 700.7 s
- Seizure grade ([2]; CTMB-L 50 mg/kg ip): 4.1 ± 1.5
- seizure rate, Clonic seizure ([2]; CTMB-L 50 mg/kg ip): 90%
- seizure rate, Tonic seizure ([2]; CTMB-L 50 mg/kg ip): 70%
- Incubation period (s), Tonic seizure ([2]; CTMB-M 75 mg/kg ip): 1553.5 ± 400.4 s
- Seizure grade ([2]; CTMB-M 75 mg/kg ip): 1.8 ± 1.3
- seizure rate, Clonic seizure ([2]; CTMB-M 75 mg/kg ip): 50%*
- seizure rate, Tonic seizure ([2]; CTMB-M 75 mg/kg ip): 30%**
- Rod-climbing time, 1 week of administration [3]: 6.38 ± 1.22 s
- Rod-climbing time, 2 weeks of administration [3]: 6.41 ± 1.12 s
- Rod-climbing time, 3 weeks of administration [3]: 5.50 ± 1.02^#, * s
- Rod-climbing time, 4 weeks of administration [3]: 5.28 ± 0.92^#, * s
- Rod-climbing time, Before administration ([3]; baseline 2 weeks after 6-OHDA): 9.29 ± 1.92 s
